Tests used:
Assay type in all cases: biochemical
HAase [1] = biological target: T1, HAase (Bos taurus, UniProt Q2YDK3); test: Combined effects of SAB and RA on HAase (median-effect equation, combination index); conditions: for Fa (%): SAB-only group
T1 sequence (Q2YDK3 36-553): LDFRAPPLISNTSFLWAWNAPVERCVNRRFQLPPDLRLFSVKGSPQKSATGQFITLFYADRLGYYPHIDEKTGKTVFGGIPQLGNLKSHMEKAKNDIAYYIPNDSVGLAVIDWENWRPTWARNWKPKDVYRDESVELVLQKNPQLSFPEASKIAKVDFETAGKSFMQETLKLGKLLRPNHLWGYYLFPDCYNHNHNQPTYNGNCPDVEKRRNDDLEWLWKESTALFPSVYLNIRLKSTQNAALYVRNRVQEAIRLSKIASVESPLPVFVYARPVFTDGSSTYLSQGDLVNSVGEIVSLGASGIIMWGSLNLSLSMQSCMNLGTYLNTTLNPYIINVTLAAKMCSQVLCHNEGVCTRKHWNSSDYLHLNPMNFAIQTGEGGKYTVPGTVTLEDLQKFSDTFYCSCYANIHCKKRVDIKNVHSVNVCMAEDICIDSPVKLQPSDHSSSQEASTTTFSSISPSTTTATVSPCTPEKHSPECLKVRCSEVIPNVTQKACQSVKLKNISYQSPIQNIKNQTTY
Procedure: (§1) The inhibition assay of the ligands against HAase was performed, following the Elson–Morgan modified method, and the working concentration of the sample was determined to be 0.5 mg/mL [35, 36, 37]. The assays took place in 10 mL centrifuge tubes. Firstly, 0.5 mL of sample solution and 0.5 mL of HAase were added (500 U/mL) to the tube in a 37 °C water bath for 20 min. Then, 0.1 mL of CaCl2 (2.5 mol/L) solution was added to the tube in a 37 °C water bath for 20 min. Next, 0.5 mL of sodium hyaluronate solution (0.5 mg/mL) was added to the tube at 37 °C in a water bath for 40 min. Afterward, we added 0.5 mL of distilled water, 0.1 mL of NaOH solution, and 0.5 mL of acetylacetone (composed of 50 mL of Na2CO3 (1 M) and 3.5 mL of acetylacetone) to the tube. This mixture was kept in the 37 °C water bath for 15 min and then transferred to an ice bath for 10 min, followed by 10 min at room temperature. Afterward, 1 mL of P-DAB and 4.3 mL of ethanol were added to it. The absorbance was measured at 530 nm after allowing the solution to stand for 30 min. The HAase inhibition rate (R) was calculated using the following formula:(1) R=A0−A/A0×100% where A0 is the absorbance of the control group (without the sample, enzyme solution, and sodium hyaluronate as the drug control), and A is the absorbance of the sample group (with the sample, no enzyme solution, and sodium hyaluronate as the blank control); ascorbic acid was the positive control.
The Fa value for each group is Fa (%) = R* (where R* denotes the mean value of inhibition in the administered group). Neutralization graphs (y = log Fa/Fu, x = logD, and y = ax + b) and the neutralization of the two components in monotherapy and combination were calculated based on the neutralization equation Fa/Fu = (D/Dm)^m. In this equation, Fa is the drug effect, Fu = 1 − Fa, D is the drug concentration, Dm is the neutralization concentration, that is, the concentration of the drug when it exerts 50% of its effect, and m is the slope of the equation of the neutralization curve. Dose was calculated using (logDm = −b/a, a = m) and the corresponding parameters of the equation (slope m and correlation coefficient r, etc.). Then, the CI value of the combined effect was calculated according to the following formula:(2) CI=D1/Dx1+D2/Dx2 where D1 and D2 are the concentrations of each of the two drugs causing the x effect when combined, and Dx1 and Dx2 are the concentrations of each of the two drugs causing the x effect when used alone. […] The quantitative effect-relationship curves of the two drugs individually and after combination were plotted using GraphPad Prism V5.0, with the drug concentration as the horizontal coordinate and the Fa value as the vertical coordinate. The data of the combined action group were simulated using Compusyn V1.0 and the neutral effect equation. The Fa-CI curves were plotted using GraphPad Prism V5.0, with the simulated Fa on the horizontal axis and its corresponding CI value on the vertical axis. This comprehensive analysis aimed to thoroughly evaluate the effects of the 2 drugs following their combined action, based on the provided data.

HAase [2] = biological target: T1, HAase; test: Enzyme kinetics study (Lineweaver–Burk plots); conditions: for type of HAase inhibition: Lineweaver–Burk plots; for Kis: from Y-intercept of double inverse curve vs inhibitor concentration
Procedure: We conducted enzyme kinetic studies to explore the inhibitory patterns of the ligands of HAase, employing a method that was previously documented. Based on the earlier HAase inhibition assay, 5 different concentrations of ligands (0, 1/2 × IC50, 1 × IC50, 3/2 × IC50, and 2 × IC50) were reacted with 5 different concentrations of sodium hyaluronate (500, 750, 1000, 1250, and 1500 µM). The reaction rate was monitored within the initial 30 min post-initiation. Grouping the samples by concentration, we derived the corresponding regression equations to construct the Lineweaver–Burk diagram, with the reciprocal of the average reaction rate (1/V) on the ordinate and the reciprocal of the substrate concentration (1/[S]) on the abscissa. From this diagram, we extracted the reciprocal of the transverse intercept (Km) and longitudinal intercept (Vmax) to compute the values of the constants Ki and Kis.

HAase [3] = biological target: T1, HAase; test: HAase inhibition assay (Elson–Morgan modified method)
Procedure: as §1, with “The HAase inhibition rate (R) was calculated using the following formula:(1) R=A0−A/A0×100% where A0 is the absorbance of the control group (without the sample, enzyme solution, and sodium hyaluronate as the drug control), and A is the absorbance of the sample group (with the sample, no enzyme solution, and sodium hyaluronate as the blank control); ascorbic acid was the positive control.” left out

Compound | m (slope of the neutralization curve equation) (HAase [1]; median-effect equation) | type of HAase inhibition (HAase [2]) | Kis (HAase [2]) | IC50 against HAase (HAase [3]) | Inhibition Rate (%) against HAase (HAase [3]; sample concentration 0.5 mg/mL, mean ± SD (n = 3)) | Fa (%) (HAase [1]; 0.006 mg/mL) | Fa (%) (HAase [1]; 0.03 mg/mL) | Fa (%) (HAase [1]; 0.06 mg/mL) | Fa (%) (HAase [1]; 0.15 mg/mL) | Fa (%) (HAase [1]; 0.3 mg/mL) | Dm (median effective concentration) (HAase [1]; median-effect equation, concentration at 50% of effect)
O=C(/C=C/c1ccc(O)c(O)c1)O[C@H](Cc1ccc(O)c(O)c1)C(=O)O [RA, rosmarinic acid] | 0.6904 | mixed-type inhibitors | 4.60 µM |  |  |  |  |  |  |  | 
salvianolic acid B [SAB] | 0.6928 | mixed-type inhibitors | 0.96 µM | 204.15 ± 1.08 µg/mL | 68.27 ± 0.71% | 8.30% | 18.07% | 22.16% | 40.98% | 59.08% | 0.2424 mg/mL
